For test [1], the system named is P. aeruginosa 33. Summed up: (§1)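 Incubation 37°C, 120 rpm, 16–20 h, starting from 5 × 10^5 CFU/ml in MHB (peptidomimetics) or cation-adjusted MHB (antibiotics). Bactericidal/fungicidal endpoints came from log10-diluted wells plated on Trypticase Soya Agar containing phosphatidylcholine and Tween 80; MICs also summarised as geometric means.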
For test [2], the system named is En. cloacae 003. Summed up: as §1
For test [3], the system named is A. baumannii 007. Summed up:
as §1

For test [4], the system named is P. aeruginosa 216. Summed up:
as §1

Test [5] deals with E. coli 0010. Summed up:
as §1

In test [6] the test system is E. coli 005. Summed up: as §1
For test [7], the system named is E. coli 0015. The gist of the method: as §1
The subject of test [8] is A. baumannii 008. The gist of the method: as §1
The test system of test [9] is K. pneumoniae JIE2709. The gist of the method: as §1
Test [10] concerns S. aureus 04. Summed up:
as §1

Test [11] has as its system C. auris strains. The note with it: two C. auris strains. The procedure:
Briefly, bacteria were suspended in cation-adjusted Mueller–Hinton broth (CAMHB; Oxoid, UK) for antibiotics, or MHB (Oxoid, UK) for peptidomimetics to obtain 5 × 10^5 colony forming unit (CFU) ml^−1. […] Positive controls contained only microbes, and blanks contained only media. Microbial suspensions (100 µl) were added to wells, plates wrapped, and incubated at 37°C, 120 rpm for 16–20 h. After incubation, suspensions were removed, log10 diluted, and plated on Trypticase Soya Agar with phosphatidylcholine and Tween 80 to determine minimum bactericidal or fungicidal concentration (MBC or MFC). […] Geometric mean MIC of the peptoids were calculated to evaluate the broad overview of antimicrobial activity across the pathogens.
The therapeutic indices (TIs) of the compounds were calculated with the use of following formula: […]

The mark [12] stands for this setting: P. aeruginosa 33, MHB (melimine/Mel4 with 0.2% BSA, 0.01% acetic acid), mean MIC.
Where [13] appears, read: En. cloacae 003, MHB (melimine/Mel4 with 0.2% BSA, 0.01% acetic acid), mean MIC.
The mark [14] stands for this setting: A. baumannii 007, MHB (melimine/Mel4 with 0.2% BSA, 0.01% acetic acid), mean MIC.
Where [15] appears, read: P. aeruginosa 216, MHB (melimine/Mel4 with 0.2% BSA, 0.01% acetic acid), mean MIC.
Where [16] appears, read: E. coli 0010, MHB (melimine/Mel4 with 0.2% BSA, 0.01% acetic acid), mean MIC.
Where [17] appears, read: E. coli 005, MHB (melimine/Mel4 with 0.2% BSA, 0.01% acetic acid), mean MIC.
Where [18] appears, read: E. coli 0015, MHB (melimine/Mel4 with 0.2% BSA, 0.01% acetic acid), mean MIC.
Where [19] appears, read: K. pneumoniae JIE2709, MHB (melimine/Mel4 with 0.2% BSA, 0.01% acetic acid), mean MIC.
The mark [20] stands for this setting: A. baumannii 008, MHB (melimine/Mel4 with 0.2% BSA, 0.01% acetic acid), mean MIC.
Setting [21] is: S. aureus 004, MHB (melimine/Mel4 with 0.2% BSA, 0.01% acetic acid), mean MIC.

Like-named read-outs stand apart in the source and are kept apart here. Square brackets hold non-standard residues; d marks the D form. Peptide text beside a SMILES is read from it. Nspe(4-Br) = C[C@H](NCC(=O)O)c1ccc(Br)cc1; N(tridecyl)Gly = CCCCCCCCCCCCCNCC(=O)O; Nspe = C[C@H](NCC(=O)O)c1ccccc1; Nlys = NCCCCNCC(=O)O

Take `C[C@@H](c1ccc(Br)cc1)N(CC(N)=O)C(=O)CN(C(=O)CN(CCCCN)C(=O)CN(C(=O)CN(C(=O)CNCCCCN)[C@@H](C)c1ccccc1)[C@@H](C)c1ccc(Br)cc1)[C@@H](C)c1ccccc1` [TM2] (H-[Nlys][Nspe][Nspe(4-Br)][Nlys][Nspe][Nspe(4-Br)]-NH2): the MIC of peptidomimetics in test [1] (33) stood at 29.0 µM; in test [1] (setting [12]), 31.3 µg/mL; in test [2], 29.0 µM; in test [2] (setting [13]), 31.3 µg/mL; in test [3] (007), 29.0 µM; in test [3] (setting [14]) it was 31.3 µg/mL. The MIC of peptidomimetics in [4] (216) is 14.5 µM; in test [4] (setting [15]) it was 15.6 µg/mL; in [5] (0010), 58.1 µM; in [5] (setting [16]), 62.5 µg/mL; in [6] (005) it was 116.2 µM; in test [6] (setting [17]), 125 µg/mL. Moreover, the MIC of peptidomimetics in test [7] (0015) stood at 58.1 µM; in [7] (setting [18]) it was 62.5 µg/mL; in test [8] (008), 15.6 µg/mL; in [9] (JIE2709) it was 116.2 µM; in test [9] (setting [19]), 125 µg/mL; in test [10] (04), 3.9 µg/mL. The “Geometric mean MICCA” value in test [11] is 11.1 µg/mL.
Regarding `C[C@@H](c1ccccc1)N(CC(N)=O)C(=O)CN(CCCCN)C(=O)CN(C(=O)CN(C(=O)CN(CCCCN)C(=O)CN(C(=O)CN(C(=O)CN(CCCCN)C(=O)CN(C(=O)CN(C(=O)CNCCCCN)[C@@H](C)c1ccccc1)[C@@H](C)c1ccccc1)[C@@H](C)c1ccccc1)[C@@H](C)c1ccccc1)[C@@H](C)c1ccccc1)[C@@H](C)c1ccccc1` [TM6] (H-[Nlys][Nspe][Nspe][Nlys][Nspe][Nspe][Nlys][Nspe][Nspe][Nlys][Nspe]-NH2), the MIC of peptidomimetics in test [1] (setting [12]) worked out at 31.3 µg/mL; in test [1] (P. aeruginosa 33, value in brackets), 18.8 µM; in [2] (setting [13]), 15.6 µg/mL; in [2] (En. cloacae 003, value in brackets), 9.4 µM; in test [3] (setting [14]), 7.8 µg/mL; in test [3] (A. baumannii 007, value in brackets), 4.7 µM. Besides, the MIC of peptidomimetics was 15.6 µg/mL in [4] (setting [15]); 9.4 µM in test [4] (P. aeruginosa 216, value in brackets); 62.5 µg/mL in test [5] (setting [16]); 37.7 µM in test [5] (E. coli 0010, value in brackets); 62.5 µg/mL in [6] (setting [17]); 37.7 µM in [6] (E. coli 005, value in brackets). The MIC of peptidomimetics in [7] (setting [18]) was found to be 62.5 µg/mL; in test [7] (E. coli 0015, value in brackets), 37.7 µM; in [8] (setting [20]), 15.6 µg/mL; in [8] (A. baumannii 008, value in brackets) it was 9.4 µM; in [9] (setting [19]), 31.3 µg/mL; in [9] (K. pneumoniae JIE2709, value in brackets), 18.8 µM. In addition, the MIC of peptidomimetics in test [10] (setting [21]) is 7.8 µg/mL; in test [10] (S. aureus 004, value in brackets) it was 4.7 µM. The “Geometric mean MICCA” value in test [11] stood at 7.9 µg/mL.
Regarding `C[C@@H](c1ccc(Br)cc1)N(CC(=O)N(CCCCN)CC(=O)N(CC(=O)N(CC(=O)N(CCCCN)CC(N)=O)[C@@H](C)c1ccc(Br)cc1)[C@@H](C)c1ccccc1)C(=O)CN(C(=O)CNCCCCN)[C@@H](C)c1ccccc1` [TM12] (H-[Nlys][Nspe][Nspe(4-Br)][Nlys][Nspe][Nspe(4-Br)][Nlys]-NH2), the MIC of peptidomimetics in test [1] (33) was 3.3 µM; in [1] (setting [12]), 3.9 µg/mL; in test [2] it was 3.3 µM; in test [2] (setting [13]), 3.9 µg/mL; in test [3] (007), 51.8 µM; in test [3] (setting [14]), 62.5 µg/mL. The MIC of peptidomimetics in [4] (216) turned out to be 25.9 µM; in test [4] (setting [15]), 31.3 µg/mL; in test [5] (0010), 103.8 µM; in [5] (setting [16]) it was 125 µg/mL; in test [6] (005) it was 103.8 µM; in test [6] (setting [17]), 125 µg/mL. Besides, the MIC of peptidomimetics in [7] (0015) was found to be 51.8 µM; in test [7] (setting [18]), 62.5 µg/mL; in test [8] (008) it was 51.8 µM; in [8] (setting [20]), 62.5 µg/mL; in [9] (JIE2709), 103.8 µM; in test [9] (setting [19]), 125 µg/mL. Further, the results for the MIC of peptidomimetics in test [10] (04) and in test [10] (setting [21]) were 3.3 µM and 3.9 µg/mL, respectively. In test [11], the “Geometric mean MICCA” value is 15.6 µg/mL.
`CCCCCCCCCCCCCNCC(=O)N(CCCCN)CC(=O)N(CC(=O)N(CC(=O)N(CCCCN)CC(=O)N(CCCCN)CC(N)=O)[C@@H](C)c1ccccc1)[C@@H](C)c1ccccc1` [TM15] (H-[N(tridecyl)Gly][Nlys][Nspe][Nspe][Nlys][Nlys]-NH2): the MIC of peptidomimetics in test [1] (33) is 16.2 µM; in [1] (setting [12]), 15.6 µg/mL; in test [2], 64.9 µM; in test [2] (setting [13]), 62.5 µg/mL; in test [3] (007) it was 64.9 µM; in [3] (setting [14]) it was 62.5 µg/mL. The MIC of peptidomimetics in test [4] (216) was 16.2 µM; in test [4] (setting [15]), 15.6 µg/mL; in test [5] (0010), 64.9 µM; in test [5] (setting [16]), 62.5 µg/mL; in test [6] (005), 64.9 µM; in test [6] (setting [17]) it was 62.5 µg/mL. The MIC of peptidomimetics came to 16.2 µM in test [7] (0015); 15.6 µg/mL in test [7] (setting [18]); 32.5 µM in test [8] (008); 31.3 µg/mL in [8] (setting [20]); 129.8 µM in [9] (JIE2709); 125 µg/mL in test [9] (setting [19]). In addition, the MIC of peptidomimetics amounted to 8.1 µM in test [10] (04) and 7.8 µg/mL in [10] (setting [21]).

The values are drawn from PMC11879280, “Antimicrobial activity of peptoids against Metallo-β-lactamase-producing Klebsiella pneumoniae, Acinetobacter baumannii, Pseudomonas aeruginosa, and other WHO priority pathogens, including Candida auris” (Journal of Applied Microbiology, 2025).
